Reference: patent US9587266B2, “Mutant luciferases” (University of Massachusetts, priority 2011, dated 2017)
Several values for one entry are separate records, joined by “and”; a condition that tells them apart may be missing. Identical values can stand only once.

Legend:
[1] = molecular target: T1, R218K luciferase (Photinus pyralis, UniProt P08659, R218K); assay: Small molecule luciferase inhibition assay; format: biochemical; details: inhibitor 2 or 20 μM, enzyme titration
T1 construct: The full firefly (Photinus pyralis) luciferase gene was PCR amplified from pGL3 (Promega); GST (N, cleaved yes); made in house; host or cells: E. coli JM109
Procedure: Enzyme titration assays were performed under the same conditions, using 0 μM, 2 or 20 μM of the luciferase inhibitor 2-(4-methoxyphenyl)benzothiazole, a constant final luciferin substrate concentration of 20 μM, and serial 2-fold dilutions of luciferase concentration from 20 nM down to 0.01 nM.

[2] = molecular target: T2, WT luciferase (Photinus pyralis, UniProt P08659); format: biochemical; details: WT luciferase treated with D-luciferin; inhibitor 2 or 20 μM, enzyme titration
T2 construct: The full firefly (Photinus pyralis) luciferase gene was PCR amplified from pGL3 (Promega); GST (N, cleaved yes); made in house; host or cells: E. coli JM109
Procedure: Luminescence assays in 96-well plates were initiated by adding 30 μL 2× luciferin substrate in 20 mM Tris pH 7.4, 0.1 mM EDTA, 8 mM MgSO4, 4 mM ATP, and 1 mM TCEP to 30 μL of 20 nM purified luciferase in 20 mM Tris pH 7.4, 0.1 mM EDTA, 1 mM TCEP and 0.4 mg/mL BSA. Substrate titration assays were performed 3 minutes post-substrate addition in a Turner Veritas luminometer with final substrate concentrations ranging from 0.122-250 μM in the presence of 0 μM, 1 μM, or 10 μM of the luciferase inhibitor 2-(4-methoxyphenyl)benzothiazole. Enzyme titration assays were performed under the same conditions, using 0 μM, 2 or 20 μM of the luciferase inhibitor 2-(4-methoxyphenyl)benzothiazole, a constant final luciferin substrate concentration of 20 μM, and serial 2-fold dilutions of luciferase concentration from 20 nM down to 0.01 nM.

[3] = molecular target: T3, L286M mutant luciferase (Photinus pyralis, UniProt P08659, L286M); assay: Titration assay with purified protein; format: biochemical
T3 construct: The full firefly (Photinus pyralis) luciferase gene was PCR amplified from pGL3 (Promega); GST (N, cleaved yes); made in house; host or cells: E. coli JM109
Procedure: (§1) The PCR product was cloned into the BamH1 and NotI sites of pGEX6P-1 for bacterial expression. Mutant proteins were created using the Quickchange site-directed mutagenesis kit (Stratagene). Saturating mutagenesis was performed using the used the degenerate codon NNK at sites predicted to impact or alter substrate biding including F247, T251, L286, S347, R337, R218, Q338, Y340, A313, and I351 using the degenerate codon NNK.
(§2) Luminescence assays in 96-well plates were initiated by adding 30 μL 2× substrate in 20 mM Tris pH 7.6, 0.1 mM EDTA, 8 mM MgSO4, 4 mM ATP, and 1 mM TCEP to 30 μL of 20 nM purified luciferase in 20 mM Tris pH 7.6, 0.1 mM EDTA, 1 mM TCEP and 0.4 mg/mL BSA.

[4] = molecular target: T4, T251S mutant luciferase (Photinus pyralis, UniProt P08659, T251S); assay: Titration assay with purified protein; format: biochemical
T4 construct: The full firefly (Photinus pyralis) luciferase gene was PCR amplified from pGL3 (Promega); GST (N, cleaved yes); made in house; host or cells: E. coli JM109
Procedure: as §1, §2

[5] = molecular target: T5, R218K + L342A luciferase (Photinus pyralis, UniProt P08659, L342A/R218K); format: biochemical
T5 construct: The full firefly (Photinus pyralis) luciferase gene was PCR amplified from pGL3 (Promega); GST (N, cleaved yes); made in house; host or cells: E. coli JM109
Procedure: (§3) Purified mutant luciferases were used in bioluminescence emission and burst kinetics scans. Each purified protein in 20 mM Tris pH 7.6, 0.1 mM EDTA, 1 mM TCEP and 0.4 mg/mL BSA was added to 2× substrate in 20 mM Tris pH 7.6, 0.1 mM EDTA, 8 mM MgSO4, 4 mM ATP, and 1 mM TCEP in a cuvette.
(§4) Luciferase was rapidly injected into a cuvette containing substrate, and the emission from 400-800 nm was recorded in a SPEX FluoroMax-3 fluorimeter with closed excitation slits.

[6] = molecular target: T2, WT luciferase; format: biochemical; details: for Wavelength at Max. Emission: Table 2
Procedure: as §3, §4

[7] = molecular target: T2, WT luciferase; assay: Titration assay with purified protein; format: biochemical
Procedure: as §1, with “NNK. The point mutants S347A, L286A, A348G, E311A, I351A, A313G, R337A, H245A and L342A were made independently.” for “NNK.”
as §2, with “BSA. Titration assays were performed 3 minutes post-substrate addition in a Turner Veritas luminometer with final substrate concentrations ranging from 0.122-250 μM or 0.244-500 μM.” for “BSA.”

[8] = molecular target: T6, T251S L286M luciferase (Photinus pyralis, UniProt P08659, L286M/T251S); assay: Bioluminescence emission scan; format: biochemical
T6 construct: The full firefly (Photinus pyralis) luciferase gene was PCR amplified from pGL3 (Promega); GST (N, cleaved yes); made in house; host or cells: E. coli JM109
Procedure: (§5) Purified mutant luciferases were used in bioluminescence emission and burst kinetics scans.
as §4

[9] = molecular target: T1, R218K luciferase; assay: Bioluminescence emission scan; format: biochemical
Procedure: as §5, §4

[10] = molecular target: T7, L286M + S347A luciferase (Photinus pyralis, UniProt P08659, L286M/S347A); assay: Bioluminescence emission scan; format: biochemical
T7 construct: The full firefly (Photinus pyralis) luciferase gene was PCR amplified from pGL3 (Promega); GST (N, cleaved yes); made in house; host or cells: E. coli JM109
Procedure: as §5, §4

[11] = molecular target: T8, F247L L286M luciferase (Photinus pyralis, UniProt P08659, F247L/L286M); assay: Bioluminescence emission scan; format: biochemical
T8 construct: The full firefly (Photinus pyralis) luciferase gene was PCR amplified from pGL3 (Promega); GST (N, cleaved yes); made in house; host or cells: E. coli JM109
Procedure: as §5, §4

[12] = molecular target: T9, S347T luciferase (Photinus pyralis, UniProt P08659, S347T); assay: Bioluminescence emission scan; format: biochemical
T9 construct: The full firefly (Photinus pyralis) luciferase gene was PCR amplified from pGL3 (Promega); GST (N, cleaved yes); made in house; host or cells: E. coli JM109
Procedure: as §5, §4

[13] = molecular target: T10, L342A luciferase (Photinus pyralis, UniProt P08659, L342A); assay: Bioluminescence emission scan; format: biochemical
T10 construct: The full firefly (Photinus pyralis) luciferase gene was PCR amplified from pGL3 (Promega); GST (N, cleaved yes); made in house; host or cells: E. coli JM109
Procedure: as §5, §4

[14] = molecular target: T11, S347A luciferase (Photinus pyralis, UniProt P08659, S347A); assay: Bioluminescence emission scan; format: biochemical
T11 construct: The full firefly (Photinus pyralis) luciferase gene was PCR amplified from pGL3 (Promega); GST (N, cleaved yes); made in house; host or cells: E. coli JM109
Procedure: as §5, §4

[15] = molecular target: F247L mutant luciferase (Photinus pyralis, UniProt P08659, F247L); details: F247L mutant relative to wild-type luciferase
Procedure: as §1, with “NNK. The point mutants S347A, L286A, A348G, E311A, I351A, A313G, R337A, H245A and L342A were made independently.” for “NNK.”
as §2, with “BSA. Titration assays were performed 3 minutes post-substrate addition in a Turner Veritas luminometer with final substrate concentrations ranging from 0.122-250 μM or 0.244-500 μM.” for “BSA.”

[16] = molecular target: T12, R218K mutant luciferase (Photinus pyralis, UniProt P08659, R218K); format: biochemical; details: R218K luciferase, purified protein
T12 construct: The full firefly (Photinus pyralis) luciferase gene was PCR amplified from pGL3 (Promega); GST (N, cleaved yes); made in house; host or cells: E. coli JM109
Procedure: as §1, §2

[17] = molecular target: T13, S347A mutant luciferase (Photinus pyralis, UniProt P08659, S347A); format: biochemical; details: for Apparent Vmax: purified protein
T13 construct: The full firefly (Photinus pyralis) luciferase gene was PCR amplified from pGL3 (Promega); GST (N, cleaved yes); made in house; host or cells: E. coli JM109
Procedure: as §1, §2

[18] = molecular target: T14, T251Q luciferase (Photinus pyralis, UniProt P08659, T251Q); assay: Bioluminescence emission scan; format: biochemical
T14 construct: The full firefly (Photinus pyralis) luciferase gene was PCR amplified from pGL3 (Promega); GST (N, cleaved yes); made in house; host or cells: E. coli JM109
Procedure: as §5, §4

[19] = molecular target: T15, F247A luciferase (Photinus pyralis, UniProt P08659, F247A); assay: Bioluminescence emission scan; format: biochemical
T15 construct: The full firefly (Photinus pyralis) luciferase gene was PCR amplified from pGL3 (Promega); GST (N, cleaved yes); made in house; host or cells: E. coli JM109
Procedure: as §5, §4

[20] = molecular target: T16, F247S luciferase (Photinus pyralis, UniProt P08659, F247S); assay: Bioluminescence emission scan; format: biochemical
T16 construct: The full firefly (Photinus pyralis) luciferase gene was PCR amplified from pGL3 (Promega); GST (N, cleaved yes); made in house; host or cells: E. coli JM109
Procedure: as §5, §4

[21] = molecular target: T17, F247V luciferase (Photinus pyralis, UniProt P08659, F247V); assay: Bioluminescence emission scan; format: biochemical
T17 construct: The full firefly (Photinus pyralis) luciferase gene was PCR amplified from pGL3 (Promega); GST (N, cleaved yes); made in house; host or cells: E. coli JM109
Procedure: as §5, §4

[22] = molecular target: T18, F247R luciferase (Photinus pyralis, UniProt P08659, F247R); assay: Bioluminescence emission scan; format: biochemical
T18 construct: The full firefly (Photinus pyralis) luciferase gene was PCR amplified from pGL3 (Promega); GST (N, cleaved yes); made in house; host or cells: E. coli JM109
Procedure: as §5, §4

[23] = molecular target: T19, L286M luciferase (Photinus pyralis, UniProt P08659, L286M); assay: Bioluminescence emission scan; format: biochemical
T19 construct: The full firefly (Photinus pyralis) luciferase gene was PCR amplified from pGL3 (Promega); GST (N, cleaved yes); made in house; host or cells: E. coli JM109
Procedure: as §5, §4

[24] = molecular target: T20, L286Y luciferase (Photinus pyralis, UniProt P08659, L286Y); assay: Bioluminescence emission scan; format: biochemical
T20 construct: The full firefly (Photinus pyralis) luciferase gene was PCR amplified from pGL3 (Promega); GST (N, cleaved yes); made in house; host or cells: E. coli JM109
Procedure: as §5, §4

[25] = molecular target: T21, T251N luciferase (Photinus pyralis, UniProt P08659, T251N); assay: Bioluminescence emission scan; format: biochemical
T21 construct: The full firefly (Photinus pyralis) luciferase gene was PCR amplified from pGL3 (Promega); GST (N, cleaved yes); made in house; host or cells: E. coli JM109
Procedure: as §5, §4

[26] = molecular target: T22, T251S luciferase (Photinus pyralis, UniProt P08659, T251S); assay: Bioluminescence emission scan; format: biochemical
T22 construct: The full firefly (Photinus pyralis) luciferase gene was PCR amplified from pGL3 (Promega); GST (N, cleaved yes); made in house; host or cells: E. coli JM109
Procedure: as §5, §4

[27] = read-out: Apparent Km, 3 minutes post-substrate addition

T1 sequence (P08659 whole entry R218K): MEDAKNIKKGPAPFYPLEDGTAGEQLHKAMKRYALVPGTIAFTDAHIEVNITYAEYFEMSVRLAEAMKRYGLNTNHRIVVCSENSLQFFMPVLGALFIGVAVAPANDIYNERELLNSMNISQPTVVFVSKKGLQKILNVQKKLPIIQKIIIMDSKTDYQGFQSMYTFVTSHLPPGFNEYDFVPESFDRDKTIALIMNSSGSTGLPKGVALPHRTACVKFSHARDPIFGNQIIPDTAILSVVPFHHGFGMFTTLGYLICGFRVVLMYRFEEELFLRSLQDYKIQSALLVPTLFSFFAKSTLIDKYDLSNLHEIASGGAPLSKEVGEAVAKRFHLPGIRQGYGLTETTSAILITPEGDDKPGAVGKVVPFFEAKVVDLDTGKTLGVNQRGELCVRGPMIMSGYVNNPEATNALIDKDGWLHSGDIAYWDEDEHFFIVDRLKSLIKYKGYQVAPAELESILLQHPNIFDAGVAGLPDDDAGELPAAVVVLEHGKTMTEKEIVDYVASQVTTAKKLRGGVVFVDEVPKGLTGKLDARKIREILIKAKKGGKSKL
T12 sequence (P08659 whole entry R218K): as above
T13 sequence (P08659 whole entry S347A): as the sequence (P08659 whole entry R218K) above, with K218R, S347A counted along it
T4 sequence (P08659 whole entry T251S): as the sequence (P08659 whole entry R218K) above, with K218R, T251S counted along it
T2 sequence (P08659 whole entry): as the sequence (P08659 whole entry R218K) above, with K218R counted along it
T3 sequence (P08659 whole entry L286M): as the sequence (P08659 whole entry R218K) above, with K218R, L286M counted along it
Sequence of F247L mutant luciferase (P08659 whole entry F247L): as the sequence (P08659 whole entry R218K) above, with K218R, F247L counted along it
T9 sequence (P08659 whole entry S347T): as the sequence (P08659 whole entry R218K) above, with K218R, S347T counted along it
T11 sequence (P08659 whole entry S347A): as the sequence (P08659 whole entry R218K) above, with K218R, S347A counted along it
T10 sequence (P08659 whole entry L342A): as the sequence (P08659 whole entry R218K) above, with K218R, L342A counted along it
T5 sequence (P08659 whole entry R218K/L342A): as the sequence (P08659 whole entry R218K) above, with L342A counted along it
T17 sequence (P08659 whole entry F247V): as the sequence (P08659 whole entry R218K) above, with K218R, F247V counted along it
T6 sequence (P08659 whole entry T251S/L286M): as the sequence (P08659 whole entry R218K) above, with K218R, T251S, L286M counted along it
T16 sequence (P08659 whole entry F247S): as the sequence (P08659 whole entry R218K) above, with K218R, F247S counted along it
T20 sequence (P08659 whole entry L286Y): as the sequence (P08659 whole entry R218K) above, with K218R, L286Y counted along it
T8 sequence (P08659 whole entry F247L/L286M): as the sequence (P08659 whole entry R218K) above, with K218R, F247L, L286M counted along it
T18 sequence (P08659 whole entry F247R): as the sequence (P08659 whole entry R218K) above, with K218R, F247R counted along it
T22 sequence (P08659 whole entry T251S): as the sequence (P08659 whole entry R218K) above, with K218R, T251S counted along it
T7 sequence (P08659 whole entry L286M/S347A): as the sequence (P08659 whole entry R218K) above, with K218R, L286M, S347A counted along it
T15 sequence (P08659 whole entry F247A): as the sequence (P08659 whole entry R218K) above, with K218R, F247A counted along it
T21 sequence (P08659 whole entry T251N): as the sequence (P08659 whole entry R218K) above, with K218R, T251N counted along it
T14 sequence (P08659 whole entry T251Q): as the sequence (P08659 whole entry R218K) above, with K218R, T251Q counted along it
T19 sequence (P08659 whole entry L286M): as the sequence (P08659 whole entry R218K) above, with K218R, L286M counted along it

COc1ccc(-c2nc3ccccc3s2)cc1 [2-(4-methoxyphenyl)-benzothiazole, 2-(4-methoxyphenyl)benzothiazole]
effect of luciferase inhibitor on light output ([1]; R218K luciferase treated with D-luciferin): strongly inhibited | effect of luciferase inhibitor on light output ([1]; R218K luciferase with CycLuc2 as substrate): largely unaffected | effect of luciferase inhibitor on light output [2]: strongly inhibited

Nc1ccc2nc(C3=N[C@@H](C(=O)O)CS3)sc2c1 [6′-NH2LH2, 6′-aminoluciferin]
Apparent Vmax [3]: 62 ± 0.7 ×10^−5 cps | Apparent Vmax [4]: 51 ± 0.3 ×10^−5 cps | Maximum Emission Wavelength of Selected Substrate [5]: 594 nm | Wavelength at Max. Emission [6]: 595 nm | Maximum Emission Wavelength of Selected Substrate ([6]; Table 3): 594 nm | Apparent Vmax [7]: 35 ± 0.25 ×10^−5 cps | Wavelength at Max. Emission [8]: 602 nm | Maximum Emission Wavelength of Selected Substrate [9]: 599 nm | Maximum Emission Wavelength of Selected Substrate [10]: 589 nm | Wavelength at Max. Emission [11]: 592 nm | Wavelength at Max. Emission [12]: 583 nm | Maximum Emission Wavelength of Selected Substrate [13]: 591 nm | Wavelength at Max. Emission [14]: 591 nm | improvement of maximal sustained light emission [15]: 4.9 fold and > 5 fold | Apparent Vmax [16]: 157 ± 3.7 ×10^−5 cps | Apparent Vmax [17]: 91 ± 0.4 ×10^−5 cps

O=C(O)[C@H]1CSC(c2nc3ccc(O)cc3s2)=N1 [D-Luciferin, D-luciferin]
Apparent Vmax [3]: 1060 ± 26 ×10^−5 cps | Km [3, 27]: 19.1 ± 1.3 µM | Apparent Vmax [4]: 1054 ± 19 ×10^−5 cps | Km [4, 27]: 114 ± 3.4 µM | Wavelength at Max. Emission [6]: 554 nm | Apparent Vmax [7]: 1079 ± 13 ×10^−5 cps | Wavelength at Max. Emission [18]: 626 nm | Wavelength at Max. Emission [19]: 591 nm | Wavelength at Max. Emission [20]: 588 nm | Wavelength at Max. Emission [21]: 600 nm | Wavelength at Max. Emission [22]: 605 nm | Wavelength at Max. Emission [23]: 564 nm | Wavelength at Max. Emission [24]: 606 nm | Wavelength at Max. Emission [12]: 561 nm | Wavelength at Max. Emission [25]: 555 nm | Wavelength at Max. Emission [26]: 553 nm | Wavelength at Max. Emission [14]: 573 nm | Apparent Vmax [16]: 1541 ± 21 ×10^−5 cps | Km [16, 27]: 106 ± 2.6 µM | Apparent Vmax [17]: 142.8 ± 3 ×10^−5 cps | Km ([17]; read-out: Apparent Km, purified protein, 3 minutes post-substrate addition): 76.6 ± 3.1 µM
